According to patent publication US5525350A, “Supplementation of protein diets with di- and tripeptides” (Kansas State University Research Foundation, priority 1994, dated 1996):
Counter-ions that a name gives are not always drawn. Peptide text beside a SMILES is read from it.

Experiments:
pigs = test: growth assay, starter pig performance 0-21 days post-weaning; type: in vivo; conditions: for Daily gain: fed ad libitum
Excerpt: (§1) A trial of 180 (21±2 days of age) pigs was used in a growth assay to compare the effects of supplementing the pigs' diet with L-lysine^. HCl, 98% (78.5% lysine), and the dipeptide L-lysyl-glycine^. HCl (approximately 50% lysine) on starter pig performance and nitrogen utilization. Pigs were blocked (n=5) by initial weight (6.3 kg) and assigned to treatments according to ancestry and sex. Feed and water were available ad libitum for 21 days post-weaning (11.7 kg final weight). The control diets were formulated to include 0.9% and 1.1% lysine respectively, using a corn-soybean meal mixture containing 15% edible grade dried whey. Synthetic lysine^. HCl and the dipeptide lysyl-glycine were added to the control diets to form test diets containing 1.0% and 1.1% lysine and lysyl-glycine respectively. The following table sets forth each of the six diets used in this study.
(§2) Serum samples were obtained on days 7, 14, and 21 for analysis of urea nitrogen. Data were analyzed as a randomized complete block design and means were separated using Bonferroni pared t-tests. Single df contrasts were used to evaluate differences between the two lysine sources and levels. No differences in daily gain or daily feed intake were observed between treatments. In general, pigs consuming the 1.1% lysine corn-soybean meal control diet had higher urea nitrogen than the pigs consuming the reduced protein diets and those consuming the 1.1% lysine, lysyl-glycine supplemented diet had the lowest urea nitrogen. Pigs consuming the diets containing lysyl-glycine had lower urea nitrogen levels than pigs fed the lysine^. HCl diets on day 21. […] HCl as evidenced by the lower serum urea nitrogen levels on day 21.

[1] = serum urea nitrogen (nitrogen utilization) in starter pigs; type: in vivo; conditions: for d 7 urea N: day 7; for d 14 urea N: day 14
Excerpt: as §1, §2

[2] = serum, day 21, diet 1.0% lysine
[3] = serum, day 21, diet 1.1% lysine

SMILES | Daily feed (pigs; diet 1.0% lysine) [g] | Gain/feed (pigs; diet 1.0% lysine) | Daily gain (pigs; diet 1.0% lysine) [g] | Daily feed (pigs; diet 1.1% lysine) [g] | Gain/feed (pigs; diet 1.1% lysine) | Daily gain (pigs; diet 1.1% lysine) [g] | amino acid utilization compared with lysine HCl ([1]; as evidenced by lower serum urea nitrogen on day 21) | d 7 urea N ([1]; serum, diet 1.0% lysine) [mg/dL] | d 7 urea N ([1]; serum, diet 1.1% lysine) [mg/dL] | d 14 urea N ([1]; serum, diet 1.0% lysine) [mg/dL] | d 14 urea N ([1]; serum, diet 1.1% lysine) [mg/dL] | urea nitrogen levels compared with pigs fed the lysine HCl diets ([1]; serum, day 21, P = 0.05) | d 21 urea N [1, 2] [mg/dL] | d 21 urea N [1, 3] [mg/dL] | urea nitrogen compared with the other diets ([1]; serum, 1.1% lysine, lysyl-glycine supplemented diet, in general)
NCCCC[C@H](N)C(=O)NCC(=O)O [Lysyl-glycine, L-lysyl-glycine^. HCl] (H-Lys-Gly-OH) | 395 | 547 | 218 | 432 | 643 | 280 | more efficiently utilized | 9.7 | 8.5 | 8.9 | 8.6 | lower | 9.1 | 7.9 | lowest
NCCCC[C@H](N)C(=O)O [Lysine HCl, L-lysine^. HCl, reference compound] | 460 | 600 | 276 | 413 | 613 | 253 |  | 9.5 | 9.2 | 9.6 | 8.4 |  | 10.7 | 8.5 | 
